Here are results for one molecule from patent US20220111034A1, “VIRUS COMPOSITIONS” (priority 2019, published 2022).

For assay [1], the system named is cocultured CHO-JAM-A and Lec2-JAM-A cells. Kind of assay: Single particle tracking by dynamic confocal microscopy. It is filed as cell-based. On the procedure: A coculture of Lec2-JAM-A mCherry and CHO-JAM-A cells was seeded onto a 47-mm glass-bottomed petri dish (WillCo Wells) 1 or 2 d before the experiment to ensure formation of a confluent monolayer on the day of the experiment. Cells were imaged by laser scanning confocal microscopy using a Zeiss LSM 880 microscope with a 561 nm laser for mCherry and a 488 nm laser for Alexa488 and a 40× oil objective (NA=0.95). All experiments were conducted at room temperature with cells maintained in Ham's F12 culture medium and a gas mixture of synthetic air with 5% CO2 at 95% relative humidity that was infused at 0.1 L min^−1 into the microscopy chamber using a gas humidifier membrane (PermSelect silicone). The humidity was controlled using a humidity sensor (Sensirion). To ensure virus binding (and not internalization), the cells were placed on ice for 30 min before starting the experiment. After finding an area in which both cell types were adjacent (guided by fluorescence), Alexa488-labelled T3SA+ or T3SA− viruses (10^12 particles/mL) diluted in either F12 Ham's culture medium or 1 mM Neu5Ac solution (on ice) were added to the living cells. The fluorescent signal from both dyes (mCherry and Alexa488) as well as the signal from the PMT channel was recorded for a ˜30 min interval immediately after virus injection at a frame-rate of one image every 13.32 seconds. During recording, the focus was kept constant on the upper surface of cells. Fluorescence images were exported as 12-bit TIFF files, merged into a movie, and further processed using ImageJ (National Institutes of Health, Bethesda). Trajectories were harvested and analyzed using MTrackJ, an ImageJ plugin to track moving viral particles in the movie and obtain track statistics. The latter were further processed using Origin.

The subject of another assay is CHO cells. Kind of assay: FD-based AFM with virus-functionalized tip on living CHO cells (cocultured with Lec2). It is filed as cell-based. The following applies: 1 mM, same area rescanned, FIG. 14i-l. The procedure:
NHS-PEG27-acetal linkers were used to functionalize AFM tips as described (Gruber. Crosslinkers and Protocols for AFM Tip Functionalization. https://wwwjku.at/institut-fuer-biophysik/forschung/linked, 2018; Wildling et al. Linking of sensor molecules with amino groups to aminofunctionalized AFM tips. Bioconjug. Chem. 2011, vol. 22, 1239-1248). AFM tips (PFQNM-LC and MSCT probes, Bruker) were immersed in chloroform for 10 min, rinsed with ethanol, dried with a stream of filtered nitrogen, cleaned for 10 min using an ultraviolet radiation and ozone (UV-0) cleaner (Jetlight), and immersed overnight in an ethanolamine solution (3.3 g of ethanolamine hydrochloride in 6.6 mL of DMSO). […]
Correlative images were acquired on an AFM (Bioscope Catalyst and Bioscope Resolve, Bruker) operated in the PeakForce QNM mode (Nanoscope software v9.2) to conduct FD-based AFM and coupled to an inverted epifluorescence microscope (Zeiss Observer Z.1) as described (Newton et al. 2017, supra; Knoops et al. Specific Interactions Measured by AFM on Living Cells between Peroxiredoxin-5 and TLR4: Relevance for Mechanisms of Innate Immunity. Cell chemical biology 2018, vol. 25, 550-559, e553). […] Overview images of cell surfaces (20-30 μm^2) were recorded at imaging forces of ˜500 pN using PFQNM-LC probes (Bruker) having tip lengths of 17 μm, tip radii of 65 nm, and opening angles of 15°. […]

With `CC(=O)N[C@H]1[C@H]([C@H](O)[C@H](O)CO)OC(O)(C(=O)O)C[C@@H]1O` (stereo partly shown) [Neu5Ac, N-acetylneuraminic acid], the “number of T3SA+ particles bound to CHO-JAM-A cells” value in assay [1] (1 mM free SA, FIG. 10g) was “significantly increased”. In addition, the “diffusion potential of T3SA+ particles on the cell surface” value in assay [1] (1 mM glycan injected with viral particles, FIG. 10f) was “significant decrease of their diffusion potential”. Moreover, in assay [1] (1 mM, FIG. 10g), the “effect of free SA on diffusion and bound particles of T3SA−” value is listed as “this effect was not observed”. The “adhesion events of T3SA+ after injection of blocking glycan” value with CHO cells is “significant reduction of adhesion events”.
